For 27 compounds, IC50 results are on record in US20130165450A1, “Novel Thiazol-Carboximide Derivatives as PDK1 Inhibitors” (priority 2010, published 2013).

A word on the IC50: it is the concentration that gives 50% inhibition.

One experiment deals with T1, recombinant human PDK1 (amino acids 51-556) (Homo sapiens, UniProt O15530).
T1 construct: containing amino acids 51-556 of the human PDK1 enzyme; made in house
T1 sequence (O15530 51-556): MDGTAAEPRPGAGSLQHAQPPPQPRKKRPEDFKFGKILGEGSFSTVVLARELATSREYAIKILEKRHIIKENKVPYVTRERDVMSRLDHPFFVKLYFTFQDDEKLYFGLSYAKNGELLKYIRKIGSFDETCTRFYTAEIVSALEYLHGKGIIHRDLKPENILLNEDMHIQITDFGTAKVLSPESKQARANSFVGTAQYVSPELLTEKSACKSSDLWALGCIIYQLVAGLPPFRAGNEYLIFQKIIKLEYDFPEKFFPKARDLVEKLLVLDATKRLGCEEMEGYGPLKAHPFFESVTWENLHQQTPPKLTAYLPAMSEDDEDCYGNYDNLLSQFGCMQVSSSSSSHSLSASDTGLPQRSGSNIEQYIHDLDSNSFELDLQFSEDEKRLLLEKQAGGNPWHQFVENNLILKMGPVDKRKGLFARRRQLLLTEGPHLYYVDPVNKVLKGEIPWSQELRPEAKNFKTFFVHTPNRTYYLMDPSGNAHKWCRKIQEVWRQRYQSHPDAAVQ
Description: PDK1 IMAP fluorescence polarization kinase assay. In kind it is biochemical. Conditions: 10 nM PDK1, 100 nM peptide substrate, 100 nM PIFtide, 2.5 uM ATP, 1.5 hours; numeric values.
`CNC1(C(N)=O)CCN(c2ccc(N)cc2NC(=O)c2csc(-c3cnn(Cc4cccs4)c3)n2)CC1` [Compound 5, 1-[4-amino-2-[[[2-[1-(2-thienylmethyl)-1H-pyrazol-4-yl]-4-thiazolyl]carbonyl]amino]phenyl]-4-(methylamino)-4-piperidinecarboxamide]: the 50% inhibitory concentration (IC50) came to 81 nM. Take `Nc1ccc(N2CCC[C@@H](N)C2)c(NC(=O)c2csc(-c3cnn(Cc4cccs4)c3)n2)c1` [Compound 1, N-[5-amino-2-(3(R)-amino-1-piperidinyl)phenyl]-2-[1-(2-thienylmethyl)-1H-pyrazol-4-yl]-4-thiazolecarboxamide]: the 50% inhibitory concentration (IC50) was found to be 7 nM. Regarding `Nc1ccc(N2CCC3(CCCNC3)CC2)c(NC(=O)c2csc(-c3cnn(Cc4cccs4)c3)n2)c1` [Compound 7, N-[5-amino-2-(2,9-diazaspiro[5.5]undec-9-yl)phenyl]-2-[1-(2-thienylmethyl)-1H-pyrazol-4-yl]-4-thiazolecarboxamide], the IC50 came out at 60 nM.

Still in this experiment, the particulars now being: 10 nM PDK1, 100 nM peptide substrate, 100 nM PIFtide, 2.5 uM ATP, 1.5 hours; rated A-D.
Regarding `N[C@@H]1CCCN(c2c(F)cccc2NC(=O)c2csc(-c3cnn(Cc4c(F)cccc4C(F)(F)F)c3)n2)C1` [Compound 35, N-[2-(3(R)-amino-1-piperidinyl)-3-fluorophenyl]-2-[1-[[2-fluoro-6-(trifluoromethyl)phenyl]methyl]-1H-pyrazol-4-yl]-4-thiazolecarboxamide], the concentration for half-maximal inhibition (IC50) is over 1000 nM. Turning to `N[C@@H]1CCCN(c2c(F)cccc2NC(=O)c2csc(-c3cnn(Cc4c(F)cc(F)cc4F)c3)n2)C1` [Compound 38, N-[2-(3(R)-amino-1-piperidinyl)-3-fluorophenyl]-2-[1-[(2,4,6-trifluorophenyl)methyl]-1H-pyrazol-4-yl]-4-thiazolecarboxamide], the IC50 is 251 to 1000 nM. Same read-out and setting: as for `N[C@@H]1CCCN(c2c(F)cccc2NC(=O)c2csc(-c3cnn(Cc4cccc(F)c4F)c3)n2)C1` [Compound 52, N-[2-(3(R)-amino-1-piperidinyl)-3-fluorophenyl]-2-[1-[(2,3-difluorophenyl)methyl]-1H-pyrazol-4-yl]-4-thiazolecarboxamide], the figure is 51 to 250 nM; as for `N[C@@H]1CCCN(c2c(F)cccc2NC(=O)c2csc(-c3cnn(Cc4c(F)cccc4CO)c3)n2)C1` [Compound 46, N-[2-(3(R)-amino-1-piperidinyl)-3-fluorophenyl]-2-[1-[[2-fluoro-6-(hydroxymethyl)phenyl]methyl]-1H-pyrazol-4-yl]-4-thiazolecarboxamide], 51 to 250 nM; as for `Nc1ccc(N2CC[C@@H](N)C2)c(NC(=O)c2csc(-c3cnn(Cc4cccs4)c3)n2)c1` [Compound 10, N-[5-amino-2-(3(R)-amino-1-pyrrolidinyl)phenyl]-2-[1-(2-thienylmethyl)-1H-pyrazol-4-yl]-4-thiazolecarboxamide], 1 to 50 nM. Same read-out and setting: for `NCc1ccccc1Cn1cc(-c2nc(C(=O)Nc3cccc(F)c3N3CCC[C@@H](N)C3)cs2)cn1` [Compound 51, 2-[1-[[2-(aminomethyl)phenyl]methyl]-1H-pyrazol-4-yl]-N-[2-(3(R)-amino-1-piperidinyl)-3-fluorophenyl]-4-thiazolecarboxamide] the value was 251 to 1000 nM; for `Nc1ccc(N2CCC[C@@H](N)C2)c(NC(=O)c2csc(-c3cnn(Cc4ccccc4F)c3)n2)c1` [Compound 21, N-[5-amino-2-(3(R)-amino-1-piperidinyl)phenyl]-2-[1-[(2-fluorophenyl)methyl]-1H-pyrazol-4-yl]-4-thiazolecarboxamide], 1 to 50 nM. On to `Nc1ccc(N2CCC[C@@H](N)C2)c(NC(=O)c2csc(-c3cnn(CCc4ccccc4)c3)n2)c1` [Compound 17, N-[5-amino-2-(3(R)-amino-1-piperidinyl)phenyl]-2-[1-(2-phenylethyl)-1H-pyrazol-4-yl]-4-thiazolecarboxamide], for which the IC50 fell in the range of 1 to 50 nM. Same read-out and setting: for `N[C@@H]1CCCN(c2c(F)cccc2NC(=O)c2csc(-c3cnn(CC4CCNCC4)c3)n2)C1` [Compound 47, N-[2-(3(R)-amino-1-piperidinyl)-3-fluorophenyl]-2-[1-(4-piperidinylmethyl)-1H-pyrazol-4-yl]-4-thiazolecarboxamide] the value was over 1000 nM. As to `Nc1ccc(N2CCC3(CC2)OCCO3)c(NC(=O)c2csc(-c3cnn(Cc4cccc(F)c4)c3)n2)c1` [Compound 15, N-[5-amino-2-(1,4-dioxa-8-azaspiro[4.5]dec-8-yl)phenyl]-2-[1-[(3-fluorophenyl)methyl]-1H-pyrazol-4-yl]-4-thiazolecarboxamide], the IC50 was in the range of 1 to 50 nM. With `NCC1CCN(c2ccc(N)cc2NC(=O)c2csc(-c3cnn(Cc4cccs4)c3)n2)CC1` [Compound 8, N-[5-amino-2-[4-(aminomethyl)-1-piperidinyl]phenyl]-2-[1-(2-thienylmethyl)-1H-pyrazol-4-yl]-4-thiazolecarboxamide], the IC50 was in the range of 1 to 50 nM. Take `COCCn1cc(-c2nc(C(=O)Nc3cc(N)ccc3N3CCC[C@@H](N)C3)cs2)cn1` [Compound 26, N-[5-amino-2-(3(R)-amino-1-piperidinyl)phenyl]-2-[1-(2-methoxyethyl)-1H-pyrazol-4-yl]-4-thiazolecarboxamide]: the IC50 lay within 1 to 50 nM. As to `Nc1ccc(N2CCC[C@@H](N)C2)c(NC(=O)c2csc(-c3cnn(Cc4ccncc4)c3)n2)c1` [Compound 9, N-[5-amino-2-(3(R)-amino-1-piperidinyl)phenyl]-2-[1-(4-pyridinylmethyl)-1H-pyrazol-4-yl]-4-thiazolecarboxamide], the half-inhibitory concentration (IC50) was 51 to 250 nM. As to `Nc1ccc(N2CCC[C@@H](N)C2)c(NC(=O)c2csc(-c3cnn(Cc4cccnc4)c3)n2)c1` [Compound 18, N-[5-amino-2-(3(R)-amino-1-piperidinyl)phenyl]-2-[1-(3-pyridinylmethyl)-1H-pyrazol-4-yl]-4-thiazolecarboxamide], the IC50 lay in the range of 1 to 50 nM. For `N[C@@H]1CCCN(c2c(F)cccc2NC(=O)c2csc(-c3cnn(Cc4ccccn4)c3)n2)C1` [Compound 27, N-[2-(3(R)-amino-1-piperidinyl)-3-fluorophenyl]-2-[1-(2-pyridinylmethyl)-1H-pyrazol-4-yl]-4-thiazolecarboxamide], the concentration for half-maximal inhibition (IC50) lay in the range of 51 to 250 nM. Regarding `Nc1ccc(N2CC[C@@H](N)C2)c(NC(=O)c2csc(-c3cnn(Cc4ccccn4)c3)n2)c1` [Compound 29, N-[5-amino-2-(3(R)-amino-1-pyrrolidinyl)phenyl]-2-[1-(2-pyridinylmethyl)-1H-pyrazol-4-yl]-4-thiazolecarboxamide], the IC50 lay within 51 to 250 nM. `Nc1ccc(N2CCC3(CC2)OCCO3)c(NC(=O)c2csc(-c3cnn(Cc4cccs4)c3)n2)c1` [Compound 34, N-[5-amino-2-(1,4-dioxa-8-azaspiro[4.5]dec-8-yl)phenyl]-2-[1-(2-thienylmethyl)-1H-pyrazol-4-yl]-4-thiazolecarboxamide]: the IC50 fell in the range of 51 to 250 nM. Regarding `N[C@@H]1CCCN(c2c(F)cccc2NC(=O)c2csc(-c3cnn(Cc4cccnc4)c3)n2)C1` [Compound 31, N-[2-(3(R)-amino-1-piperidinyl)-3-fluorophenyl]-2-[1-(3-pyridinylmethyl)-1H-pyrazol-4-yl]-4-thiazolecarboxamide], the IC50 was in the range of 51 to 250 nM.

`N[C@@H]1CCCN(c2c(F)cccc2NC(=O)c2csc(-c3cnn(Cc4ccccc4OC(F)F)c3)n2)C1` [Compound 36, N-[2-(3(R)-amino-1-piperidinyl)-3-fluorophenyl]-2-[1-[[2-(difluoromethoxy)phenyl]methyl]-1H-pyrazol-4-yl]-4-thiazolecarboxamide]: the half-inhibitory concentration (IC50) fell in the range of 251 to 1000 nM. Take `NCC1CCN(c2c(F)cccc2NC(=O)c2csc(-c3cnn(Cc4cccs4)c3)n2)CC1` [Compound 6, N-[2-[4-(aminomethyl)-1-piperidinyl]-3-fluorophenyl]-2-[1-(2-thienylmethyl)-1H-pyrazol-4-yl]-4-thiazolecarboxamide]: the IC50 was 51 to 250 nM. Same read-out and setting: for `N[C@@H]1CCCN(c2c(F)cccc2NC(=O)c2csc(-c3cnn(Cc4ccccc4-c4cn[nH]c4)c3)n2)C1` [Compound 50, N-[2-(3(R)-amino-1-piperidinyl)-3-fluorophenyl]-2-[1-[[2-(1h-pyrazol-4-yl)phenyl]methyl]-1H-pyrazol-4-yl]-4-thiazolecarboxamide] the value was over 1000 nM; for `Nc1ccc(N2CCC[C@@H](N)C2)c(NC(=O)c2csc(-c3cnn(Cc4cc(F)cc(F)c4)c3)n2)c1` [Compound 16, N-[5-amino-2-(3(R)-amino-1-piperidinyl)phenyl]-2-[1-[(3,5-difluorophenyl)methyl]-1H-pyrazol-4-yl]-4-thiazolecarboxamide], 1 to 50 nM. Turning to `N[C@@H]1CCCN(c2c(F)cccc2NC(=O)c2csc(-c3cnn(Cc4ccccc4)c3)n2)C1` [Compound 25, N-[2-(3(R)-amino-1-piperidinyl)-3-fluorophenyl]-2-[1-(phenylmethyl)-1H-pyrazol-4-yl]-4-thiazolecarboxamide], the IC50 was in the range of 51 to 250 nM. Turning to `CCOC(=O)C1CCN(c2ccc(N)cc2NC(=O)c2csc(-c3cnn(Cc4cccs4)c3)n2)CC1` [Compound 12, ethyl 1-[4-amino-2-[[[2-[1-(2-thienylmethyl)-1H-pyrazol-4-yl]-4-thiazolyl]carbonyl]amino]phenyl]-4-piperidinecarboxylate], the IC50 fell in the range of 251 to 1000 nM.
